# In PMC6814236, “Monitoring and characterizing soluble and membrane-bound ectonucleotidases CD73 and CD39” (PLoS ONE, 2019):
# Assays:
# [1] = target: T1, membrane-associated CD73 of MDA-MB-231 cells (Homo sapiens, UniProt P21589); assay: Cell-based membrane-associated CD73 activity (AMP-Glo cell-based assay)
# T1 construct: cell-based membrane-associated CD73 from MDA-MB-231 following AMP-Glo cell-based assay; endogenous in cells; host or cells: MDA-MB-231
# T1 sequence (P21589 27-574): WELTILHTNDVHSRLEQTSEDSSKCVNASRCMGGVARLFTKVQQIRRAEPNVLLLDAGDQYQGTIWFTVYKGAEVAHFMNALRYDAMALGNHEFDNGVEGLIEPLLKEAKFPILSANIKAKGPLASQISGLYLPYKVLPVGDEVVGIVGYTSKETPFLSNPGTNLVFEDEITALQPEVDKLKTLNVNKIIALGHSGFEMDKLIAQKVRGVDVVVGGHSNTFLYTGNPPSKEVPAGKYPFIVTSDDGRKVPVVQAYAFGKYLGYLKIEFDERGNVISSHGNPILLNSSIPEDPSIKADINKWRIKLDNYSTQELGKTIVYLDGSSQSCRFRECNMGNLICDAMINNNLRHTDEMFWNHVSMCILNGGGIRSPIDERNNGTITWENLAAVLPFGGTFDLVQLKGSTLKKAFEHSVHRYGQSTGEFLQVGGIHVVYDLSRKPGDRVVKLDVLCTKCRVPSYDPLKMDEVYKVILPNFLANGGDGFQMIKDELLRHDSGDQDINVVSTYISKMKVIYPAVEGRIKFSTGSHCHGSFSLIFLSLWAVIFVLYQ
# Experimental: • Adherent Cells preparation and assay protocol. Cells grown in 75cm^2 flasks were trypsinized and counted, and were diluted with full medium, and plated to a tissue culture grade solid white or clear bottom plate, at cell density of 25K cells in full medium (10% FBS and 1% Pen/Strep) per well, and kept overnight at 37°C in a 5% CO2 incubator. Fresh medium was added an hour before use by pipetting out ¾ volume of overnight medium from each well and replaced with a ¾ volume of fresh full growing medium. Cells were washed twice with HBSS by taking out whole medium from each well and replaced with fresh 100μl of HBSS to each well. […]
# For CD73 activity using AMP as substrate, 25μl aliquots were withdrawn from each well at the desired time point and added to assay solid white plate (Corning Costar 3912 or equivalent) followed by the addition of 25μl of AMP-Glo™ Reagent I to each well, mixed well and incubated for 30min at 23°C.This was followed by the addition of 50μl per well of AMP-Glo™ Detection Solution (1ml of Kinase-Glo™ One Solution mixed with 10μl of AMP-Glo™ Reagent II), see AMP-Glo™ TM#384. This was followed by incubating the mixture for 60min at 23°C, before reading the plate using a luminometer. […]
# [2] = system: T2, membrane-associated CD39 of Farage cells; assay: Cell-based membrane-associated CD39 activity; parameters: species or system human; conditions: 50μM inhibitor, Farage cells 200K per ml, 5 μM ATP, 37°C
# T2 construct: endogenous in cells; host or cells: Farage
# Experimental: For CD39 activity, since it uses both ADP and ATP, we determined its activity using 5 μM final concentration each, as substrate as described above. In a separate plate or microcentrifuge tube, a 25μl aliquots were withdrawn from each well at desired time point and delivered into an assay solid white plate (Corning Costar 3912 or equivalent).
# For ADP as substrate, detection of remaining ADP was carried out by preparing AMP Detection Solution (adding 10μl AMP-Glo™ Reagent II to one-ml of Kinase-Glo® One Solution, gently mixing well by inverse tube couple times). To the 25 μl aliquoted from the medium supernatant that was cooled down to room temperature, 25μl of AMP Detection Solution is added to each well, mixed well and incubated for 60min at 23°C, the plates were read using luminometer.
# For ATP as substrate, detection of remaining ATP, was carried out using 25μl withdrawn from the medium supernatant that was cooled down to room temperature and 25μl of Kinase-Glo® One Solution were added to each well, mixed well and incubated for 10min at 23°C, then the plate was read using luminometer.
# • B Suspension cells. Cells were harvested and washed two times with HBSS by centrifugation at 1,000 rpm at room temperature for 8~10min, discarding the supernatant and cell pellets were diluted to a desired cell number per ml before experiments. […]
Compound,"inhibition of membrane-associated CD73 activity ([1]; 50μM inhibitor, 25k MDA-MB-231 cells per well, 10μM AMP, 37°C, time course)","IC50 ([1]; 25K cells per well, 5μM AMP, 90min at 37°C) [µM]",inhibition of membrane-associated CD39 activity [2]
"Nc1ncnc2c1ncn2[C@@H]1O[C@H](COP(=O)(O)CP(=O)(O)O)[C@@H](O)[C@H]1O [AMP-CP, Adenosine 5'-(α, β-methylene) diphosphate]",inhibited,2.1,
"[Na+].[Na+].[Na+].[Na+].[Na+].[Na+].[O]=[W](=[O])([O-])[O-].[O]=[W](=[O])([O-])[O-].[O]=[W](=[O])([O-])[O-].[O]=[W](=[O])=[O].[O]=[W](=[O])=[O].[O]=[W](=[O])=[O].[O]=[W](=[O])=[O].[O]=[W](=[O])=[O].[O]=[W](=[O])=[O].[O]=[W](=[O])=[O].[O]=[W](=[O])=[O].[O]=[W](=[O])=[O] [POM1, Sodium metatungstate]",,,inhibited
